*1 amine or outer side, *2 acyl side, *3 side chain or, on linkers, in order; H or OH if unused. Where a SMILES comes first, the peptide text is derived from it. Where no end group is shown, it is not given here. Side-chain parts run from the residue outwards. [ ]: non-standard residue; d: D form. The star is where a group is joined. X1 = O=C(O)CCCCCCCCCCCCCCCCCCC(=O)NCC1CCC(C(=O)*)CC1; C18 diacid = O=C(O)CCCCCCCCCCCCCCCCC(=O)*; γGlu = O=C(O)[C@H](CCC(=O)[*:2])N[*:1]; Nle = CCCC[C@H](N)C(=O)O; AEEA = NCCOCCOCC(=O)O; Aib = CC(C)(N)C(=O)O

Holding throughout (format): physicochemical
The nature of series [1]: Chemical stability: purity loss by LCMS. The note with it: 37° C., 4 weeks, 250 μM, pH 7.4. Here is the method:
The aim of this study is to determine the chemical stability of GIP derivative compositions. As a measure of stability of the GIP derivative composition, the formation of high molecular weight peptide formation (% HMWP) as a function of time was analysed by size-exclusion chromatography (SEC-MS). Further, the purity loss of the GIP derivative compositions was measured by LCMS. Samples for chemical stability assays were freshly prepared before each assay. […] The pH of the sample was adjusted to the desired value using appropriate amounts of concentrated NaOH and HCl. […] The column oven was kept at 55° C. […] The solvents were pumped from a binary solvent manager system and mixed on the high pressure side in a mixer with a volume of 50 μl. The gradient and flow can be seen in table 4: [table] A Flow-through-needle auto sampler at 8° C. was used to inject 1 μl of each sample. The effluent passed through a tunable UV detector (TUV) tuned to 215 nm. The outlet from the UV detector passed to the electrospray source of the mass spectrometer. The capillary was held at 3 kV and dry nitrogen gas was purged at a flow of 750 I/h and a temperature of 250° C. The source block was kept at 120° C. and the large bore cone was flushed with nitrogen at 50 I/h with standard electrode potentials on the rest of the instrument. The MS was operated in high resolution mode with a nominal resolution of 35000. The ToF analyser was operated in ADC mode with an m/z window from 100-2000.

Series [2] can be described thus: ThT fibrillation assay (physical stability). The note with it: 250 μM, pH 7.4, 37° C., 45 hours of incubation. Here is the method:
The Thioflavin T assay was performed as outlined in Schlein (2017), AAPS J, 19(2), 397-408.
This has traditionally been measured by visual inspection of the sample. However, that kind of measurement is very cumbersome and depending on the observer. Therefore, the application of a small molecule indicator probe is much more advantageous. Thioflavin T (ThT) is such a probe and has a distinct fluorescence signature when binding to fibrils [Naiki et al. (1989) Anal. Biochem. 177, 244-249; LeVine (1999) Methods. Enzymol. 309, 274-284].
The time course for fibril formation can be described by a sigmoidal curve with the following expression [Nielsen et al. (2001) Biochemistry 40, 6036-6046]:
Here, F is the ThT fluorescence at the time t. The constant t0 is the time needed to reach 50% of maximum fluorescence. The two important parameters describing fibril formation are the lag-time calculated by t0−2τ and the apparent rate constant kapp 1/τ.
Few of those intermediates nucleate to form a template onto which further intermediates may assembly and the fibrillation proceeds. The lag-time corresponds to the interval in which the critical mass of nucleus is built up and the apparent rate constant is the rate with which the fibril itself is formed.
Samples are prepared freshly before each assay. The drug substance was solved with 250 μM of the GIP derivative in 8 mM phosphate, 14 mg/mL propylene glycol, 58 mM phenol, pH 7.4. The pH of the sample was adjusted to the desired value using appropriate amounts of concentrated NaOH and HCl. Thioflavin T was added to the samples from a stock solution in H2O to a final concentration of 1 μM.
Sample aliquots of 200 μl were placed in each well of a 96 well microtiter plate (Packard OptiPlate™-96, white polystyrene). Four replica of each sample (corresponding to one test condition) was placed in one column of wells. The plate was sealed with Scotch Pad (Qiagen).
Incubation, shaking and measurement of the ThT fluorescence emission were done in a Fluoroskan Ascent FL fluorescence platereader (Thermo Labsystems). […] Fluorescence measurement was done using excitation through a 444 nm filter and measurement of emission through a 485 nm filter.
Each run was initiated by incubating the plate at the assay temperature for 10 min. The plate was measured every 20 minutes for a desired period of time. Between each measurement, the plate was shaken and heated as described.
After completion of the ThT assay the replica of each sample was pooled and centrifuged at 20000 rpm for 30 minutes at 18° C. The supernatant was filtered through a 0.22 μm filter and an aliquot was transferred to a HPLC vial. The concentration of the filtered sample relative to the initial sample (in percentage) was reported as the recovery.
The measurement points were saved in Microsoft Excel format for further processing and curve drawing and fitting was performed using GraphPad Prism. […] The data points were a mean of the four replica and shown with standard deviation error bars. Only data obtained in the same experiment (i.e. samples on the same plate) were presented in the same graph ensuring a relative measure of fibrillation between experiments.
The data set may be fitted to Eq. (1).

Series [3] can be described thus: Dynamic Light Scattering Stability Index (DLS-SI). The settings on record: 250 μM, pH 7.4, 4 weeks at 25° C.
A short description of series [4]: Chemical stability: HMWP formation by SEC-MS. The note with it: 37° C., 4 weeks, 250 μM, pH 7.4. As for the experimental part: The aim of this study is to determine the chemical stability of GIP derivative compositions. As a measure of stability of the GIP derivative composition, the formation of high molecular weight peptide formation (% HMWP) as a function of time was analysed by size-exclusion chromatography (SEC-MS). Further, the purity loss of the GIP derivative compositions was measured by LCMS. Samples for chemical stability assays were freshly prepared before each assay. […] The pH of the sample was adjusted to the desired value using appropriate amounts of concentrated NaOH and HCl. […] Formation of covalent oligomers (HMWPs) was analysed and identified by a SEC-MS method. […] The LC system was coupled to both a TUV detector operated at 215 nm, 10 Hz and a high resolution QToF mass spectrometer from Waters (Synapt G2S) operated in positive ion mode and m/z range of 100 to 4000 with normal resolution setting. Lock mass correction against Leu-Enkephalin was done every 31 sec. Spectra were processed in MassLynx version 4.1 and MaxEnt deconvoluted.
(Size exclusion chromatography separates by hydrodynamic size, large species first.)

With `CCCC[C@H](NC(=O)[C@H](C)NC(=O)[C@@H](NC(=O)[C@H](CO)NC(=O)[C@H](Cc1ccc(O)cc1)NC(=O)[C@H](CC(=O)O)NC(=O)[C@H](CO)NC(=O)[C@@H](NC(=O)[C@H](Cc1ccccc1)NC(=O)[C@@H](NC(=O)CNC(=O)[C@H](CCC(=O)O)NC(=O)C(C)(C)NC(=O)[C@@H](N)Cc1ccc(O)cc1)[C@@H](C)O)[C@@H](C)CC)[C@@H](C)CC)C(=O)N[C@@H](CC(=O)O)C(=O)N[C@@H](CCCCN)C(=O)N[C@H](C(=O)N[C@@H](CCCNC(=N)N)C(=O)N[C@@H](CCC(N)=O)C(=O)N[C@@H](CCC(=O)O)C(=O)N[C@@H](CC(=O)O)C(=O)N[C@@H](Cc1ccccc1)C(=O)N[C@H](C(=O)N[C@@H](CCCCNC(=O)CC[C@H](NC(=O)CC[C@H](NC(=O)CC[C@H](NC(=O)C1CCC(CNC(=O)CCCCCCCCCCCCCCCCCCC(=O)O)CC1)C(=O)O)C(=O)O)C(=O)O)C(=O)N[C@@H](Cc1c[nH]c2ccccc12)C(=O)N[C@@H](CC(C)C)C(=O)N[C@@H](CC(C)C)C(=O)N[C@@H](C)C(=O)N[C@@H](CCC(N)=O)C(=O)N[C@@H](CCCCN)C(=O)NCC(=O)O)C(C)C)[C@@H](C)CC` (stereo partly drawn) [Compound 10, N{Epsilon-24}-[(4S)-4-carboxy-4-[[(4S)-4-carboxy-4-[[(4S)-4-carboxy-4-[[4-[(19-carboxynonadecanoylamino)methyl]cyclohexanecarbonyl]amino]butanoyl]amino]-butanoyl]amino]butanoyl]-[Aib2,Nle14,Arg18,Glu20,Lys24]-hGIP(1-31)] (H-Y[Aib]EGTFISDYSIA[Nle]DKIRQEDFVK([γGlu-γGlu-γGlu-X1])WLLAQKG-OH; N-terminus and C-terminus assumed), the “Purity loss (%/month)” value in series [1] was 4.80 %/month. In series [2], the “ThT Assay Lag time” value is on record as >45 h. Further, in series [3], the “DLS-SI Dimensionless” value is listed as 1.7 and the DLS-SI precipitates entry was “No”. In addition, the “HMWP formation (%/month)” value in series [4] was 1.50 %/month.
In the case of “Y[Aib]EGTFISDYSIALDKIHQQDFVK([AEEA-AEEA-γGlu-C18 diacid])WLLAQKGKKNDWKHNITQ [Compound 45, N{Epsilon-24}-[2-[2-[2-[[2-[2-[2-[[(4S)-4-carboxy-4-(17-carboxyheptadecanoylamino)butanoyl]amino]ethoxy]ethoxy]acetyl]amino]ethoxy]ethoxy]acetyl]-[Aib2,Leu14,Lys24]-hGIP]”, the “Purity loss (%/month)” value in series [1] was determined as 47.22 %/month. Moreover, the “ThT Assay Lag time” value in series [2] is >45 h. In series [3], the “DLS-SI Dimensionless” value is 6.7 and the DLS-SI precipitates entry is recorded as “No”. Also, the “HMWP formation (%/month)” value in series [4] amounted to 8.17 %/month.
In the case of `CCCC[C@H](NC(=O)[C@H](C)NC(=O)[C@@H](NC(=O)[C@H](CO)NC(=O)[C@H](Cc1ccc(O)cc1)NC(=O)[C@H](CC(=O)O)NC(=O)[C@H](CO)NC(=O)[C@@H](NC(=O)[C@H](Cc1ccccc1)NC(=O)[C@@H](NC(=O)CNC(=O)[C@H](CCC(=O)O)NC(=O)C(C)(C)NC(=O)[C@@H](Cc1ccc(O)cc1)NC(C)=O)[C@@H](C)O)[C@@H](C)CC)[C@@H](C)CC)C(=O)N[C@@H](CC(=O)O)C(=O)N[C@@H](CCCCN)C(=O)N[C@H](C(=O)N[C@@H](Cc1c[nH]cn1)C(=O)N[C@@H](CCC(N)=O)C(=O)N[C@@H](CCC(N)=O)C(=O)N[C@@H](CC(=O)O)C(=O)N[C@@H](Cc1ccccc1)C(=O)N[C@H](C(=O)N[C@@H](CCCCNC(=O)CC[C@H](NC(=O)CC[C@H](NC(=O)CC[C@H](NC(=O)C1CCC(CNC(=O)CCCCCCCCCCCCCCCCCCC(=O)O)CC1)C(=O)O)C(=O)O)C(=O)O)C(=O)N[C@@H](Cc1c[nH]c2ccccc12)C(=O)N[C@@H](CC(C)C)C(=O)N[C@@H](CC(C)C)C(=O)N[C@@H](C)C(=O)N[C@@H](CCC(N)=O)C(=O)N[C@@H](CCCCN)C(=O)N1CCC[C@H]1C(N)=O)C(C)C)[C@@H](C)CC` (stereo partly drawn) [Compound 32, N{1}-acetyl,N{Epsilon-24}-[(4S)-4-carboxy-4-[[(4S)-4-carboxy-4-[[(4S)-4-carboxy-4-[[4-[(19-carboxynonadecanoylamino)methyl]cyclohexanecarbonyl]amino]butanoyl]-amino]butanoyl]amino]butanoyl]-[D-Tyr1,Aib2,Nle14,Lys24,Pro31]-hGIP(1-31) amide] (Ac-[dY][Aib]EGTFISDYSIA[Nle]DKIHQQDFVK([γGlu-γGlu-γGlu-X1])WLLAQKP-NH2), the “Purity loss (%/month)” value in series [1] is listed as 2.80 %/month. In addition, in series [2], the “ThT Assay Lag time” value is >45 h. Moreover, in series [3], the “DLS-SI Dimensionless” value is reported as 1.7 and the DLS-SI precipitates result is “No”. Also, the “HMWP formation (%/month)” value in series [4] is given as 0.66 %/month.

For the origin of these results see patent publication US10604555B2, “GIP derivatives and uses thereof” (priority 2018, dated 2020).
